Active and inactive are the calls of the source. The calls are words filed in the database; no cut-off is given here.
Experiments:
Sitophilus oryzae [1] = assay: Insecticidal activity against adult Sitophilus oryzae (rice weevil) in wheat grain assessed as mortality at 85% EC dry formulation applied as fumes for 24 hr measured after 7 days by fumigation bioassay; format: functional
Tribolium confusum [2] = assay: Insecticidal activity against third-instar larval stage of Tribolium confusum (confused flour beetle) assessed as enlarged mitochondria with reduced quantity of cristae, lower electron dense matrix, vacuolization and rarefaction of mitochondrial matrix in the epithelial cells of epidermal layer in the integument at LC20 applied as fumes measured after 24 hr by electron microscopic analysis; format: functional, organism-based; details: Epithelial cell
Tribolium confusum [3] = assay: Insecticidal activity against third-instar larval stage of Tribolium confusum (confused flour beetle) assessed as vacuolization of mitochondrial matrix, nucleus with well distributed chromatin, enlarged mitochondria with few cristae, reduced electron density, matrix rarefaction in the epithelial cells of epidermal layer in the integument at LC50 applied as fumes measured after 24 hr by electron microscopic analysis; format: functional, organism-based; details: Epithelial cell
Tribolium confusum [4] = assay: Insecticidal activity against third-instar larval stage of Tribolium confusum (confused flour beetle) assessed as morphological changes in anterior, posterior and middle regions of midgut with attatched malphigian tubules applied as vapours measured after 24 hr by light microscopy; format: functional, organism-based
Tribolium confusum [5] = assay: Insecticidal activity against third-instar larval stage of Tribolium confusum (confused flour beetle) assessed as change in the integument colour to dark in the middle area with slight effect toward both ends applied as vapour measured after 24 hr by light microscopic analysis; format: functional, organism-based
Tribolium confusum [6] = assay: Insecticidal activity against larvae of Tribolium confusum (confused flour beetle) in broken wheat assessed as mortality at 11.3 microl/L air at 85% EC formulation applied as fumes for 72 hr measured after 14 days by fumigation bioassay; format: functional
Tribolium confusum [7] = assay: Insecticidal activity against adult Tribolium confusum (confused flour beetle) in broken wheat assessed as mortality at 11.3 microl/L air at 85% EC formulation applied as fumes for 72 hr measured after 14 days by fumigation bioassay; format: functional
Sitophilus oryzae [8] = assay: Insecticidal activity against adult Sitophilus oryzae (rice weevil) in wheat grain assessed as mortality at 11.3 microl/L air at 85% EC formulation applied as fumes for 72 hr measured after 7 days by fumigation bioassay; format: functional
Tribolium confusum [9] = assay: Insecticidal activity against larvae of Tribolium confusum (confused flour beetle) in broken wheat assessed as mortality at 9.4 microl/L air at 85% EC formulation applied as fumes for 72 hr measured after 14 days by fumigation bioassay; format: functional
Tribolium confusum [10] = assay: Insecticidal activity against adult Tribolium confusum (confused flour beetle) in broken wheat assessed as mortality at 9.4 microl/L air at 85% EC formulation applied as fumes for 72 hr measured after 14 days by fumigation bioassay; format: functional
Sitophilus oryzae [11] = assay: Insecticidal activity against adult Sitophilus oryzae (rice weevil) in wheat grain assessed as mortality at 9.4 microl/L air at 85% EC formulation applied as fumes for 72 hr measured after 7 days by fumigation bioassay; format: functional
Tribolium confusum [12] = assay: (§1) Insecticidal activity against third-instar larval stage of Tribolium confusum (confused flour beetle) assessed as numerous mitochondria with few cristae, reduced electron density, matrix rarefaction and vacuolization of the mitochondrial matrix in regenerative nidi cells of the midgut at LC20 applied as fumes measured after 24 hr by electron microscopic analysis; format: functional, organism-based
Tribolium confusum [13] = assay: Insecticidal activity against larvae of Tribolium confusum (confused flour beetle) in broken wheat assessed as mortality at 4.3 microl/L air at 85% EC formulation applied as fumes for 72 hr measured after 14 days by fumigation bioassay; format: functional
Tribolium confusum [14] = assay: Insecticidal activity against adult Tribolium confusum (confused flour beetle) in broken wheat assessed as mortality at 4.3 microl/L air at 85% EC formulation applied as fumes for 72 hr measured after 14 days by fumigation bioassay; format: functional
Sitophilus oryzae [15] = assay: Insecticidal activity against adult Sitophilus oryzae (rice weevil) in wheat grain assessed as mortality at 4.3 microl/L air at 85% EC formulation applied as fumes for 72 hr measured after 7 days by fumigation bioassay; format: functional
Plodia interpunctella [16] = assay: Insecticidal activity against larvae of Plodia interpunctella (Indian meal moth ) in wheat grain assessed as mortality at 85% EC wettable formulation applied as fumes for 72 hr measured after 7 days by fumigation bioassay; format: functional
Tribolium confusum [17] = assay: as §1, with “columnar” for “regenerative nidi”; format: functional, organism-based
Tribolium confusum [18] = assay: Insecticidal activity against larvae of Tribolium confusum (confused flour beetle) in broken wheat assessed as mortality at 85% EC wettable formulation applied as fumes for 72 hr measured after 14 days by fumigation bioassay; format: functional
Tribolium confusum [19] = assay: Insecticidal activity against adult Tribolium confusum (confused flour beetle) in broken wheat assessed as mortality at 85% EC wettable formulation applied as fumes for 72 hr measured after 14 days by fumigation bioassay; format: functional
Sitophilus oryzae [20] = assay: Insecticidal activity against adult Sitophilus oryzae (rice weevil) in wheat grain assessed as mortality at 85% EC wettable formulation fumigated for 72 hr applied as fumes after 7 days by fumigation bioassay; format: functional
Plodia interpunctella [21] = assay: Insecticidal activity against larvae of Plodia interpunctella (Indian meal moth ) in wheat grain assessed as mortality at 85% EC wettable formulation applied as fumes for 24 hr measured after 7 days by fumigation bioassay; format: functional
Tribolium confusum [22] = assay: Insecticidal activity against larvae of Tribolium confusum (confused flour beetle) in broken wheat assessed as mortality at 85% EC wettable formulation applied as fumes for 24 hr measured after 14 days by fumigation bioassay; format: functional
Tribolium confusum [23] = assay: Insecticidal activity against adult Tribolium confusum (confused flour beetle) in broken wheat assessed as mortality at 85% EC wettable formulation applied as fumes for 24 hr measured after 14 days by fumigation bioassay; format: functional
Sitophilus oryzae [24] = assay: Insecticidal activity against adult Sitophilus oryzae (rice weevil) in wheat grain assessed as mortality at 85% EC wettable formulation applied as fumes for 24 hr measured after 7 days by fumigation bioassay; format: functional
Plodia interpunctella [25] = assay: Insecticidal activity against larvae of Plodia interpunctella (Indian meal moth ) in wheat grain assessed as mortality at 85% EC dry formulation applied as fumes for 72 hr measured after 7 days by fumigation bioassay; format: functional
Tribolium confusum [26] = assay: Insecticidal activity against larvae of Tribolium confusum (confused flour beetle) in broken wheat assessed as mortality at 85% EC dry formulation applied as fumes for 72 hr measured after 14 days by fumigation bioassay; format: functional
Tribolium confusum [27] = assay: Insecticidal activity against adult Tribolium confusum (confused flour beetle) in broken wheat assessed as mortality at 85% EC dry formulation applied as fumes for 72 hr measured after 14 days by fumigation bioassay; format: functional
Sitophilus oryzae [28] = assay: Insecticidal activity against adult Sitophilus oryzae (rice weevil) in wheat grain assessed as mortality at 85% EC dry formulation applied as fumes for 72 hr measured after 7 days by fumigation bioassay; format: functional
Plodia interpunctella [29] = assay: Insecticidal activity against larvae of Plodia interpunctella (Indian meal moth ) in wheat grain assessed as mortality at 85% EC dry formulation applied as fumes for 24 hr measured after 7 days by fumigation bioassay; format: functional
Tribolium confusum [30] = assay: Insecticidal activity against larvae of Tribolium confusum (confused flour beetle) in broken wheat assessed as mortality at 85% EC dry formulation applied as fumes for 24 hr measured after 14 days by fumigation bioassay; format: functional
Tribolium confusum [31] = assay: Insecticidal activity against adult Tribolium confusum (confused flour beetle) in broken wheat assessed as mortality at 85% EC dry formulation applied as fumes for 24 hr measured after 14 days by fumigation bioassay; format: functional
Tribolium confusum [32] = assay: Insecticidal activity against larvae of Tribolium confusum (confused flour beetle) in broken wheat assessed as mortality at 5 mg/l applied as fumes for 72 hr measured after 14 days by fumigation bioassay; details: in Triticum aestivum
Tribolium confusum [33] = assay: Insecticidal activity against adult Tribolium confusum (confused flour beetle) in broken wheat assessed as mortality at 5 mg/l applied as fumes for 72 hr measured after 14 days by fumigation bioassay; details: in Triticum aestivum
Sitophilus oryzae [34] = assay: whole plant or invertebrate; details: in Triticum aestivum

Question: With `C=CCN=C=S` [ALLYL ISOTHIOCYANATE] as the compound, how does the LC50 (Sitophilus oryzae [1]) read?
Answer: 2.6 uL/L

Question: And the LC95 (Sitophilus oryzae [1])?
Answer: 4.7 uL/L

Question: What about the Activity (Tribolium confusum [2]) of the same compound?
Answer: Active

Question: And the Activity (Tribolium confusum [3])?
Answer: Active

Question: What about the Activity (Tribolium confusum [4]) of the same compound?
Answer: Active

Question: What about the Activity (Tribolium confusum [5]) of the same compound?
Answer: Active

Question: And the mortality (Tribolium confusum [6])?
Answer: 100%

Question: And the mortality (Tribolium confusum [7])?
Answer: 100%

Question: What about the mortality (Sitophilus oryzae [8]) of the same compound?
Answer: 100%

Question: And the mortality (Tribolium confusum [9])?
Answer: 93%

Question: And the mortality (Tribolium confusum [10])?
Answer: 100%

Question: What about the mortality (Sitophilus oryzae [11]) of the same compound?
Answer: 100%

Question: And the Activity (Tribolium confusum [12])?
Answer: Active

Question: And the mortality (Tribolium confusum [13])?
Answer: 48%

Question: And the mortality (Tribolium confusum [14])?
Answer: 70%

Question: What about the mortality (Sitophilus oryzae [15]) of the same compound?
Answer: 100%

Question: And the LC50 (Plodia interpunctella [16])?
Answer: 2.3 uL/L

Question: What about the LC95 (Plodia interpunctella [16]) of the same compound?
Answer: 5 uL/L

Question: And the Activity (Tribolium confusum [17])?
Answer: Active

Question: And the LC50 (Tribolium confusum [18])?
Answer: 5.5 uL/L

Question: What about the LC95 (Tribolium confusum [18]) of the same compound?
Answer: 9.9 uL/L

Question: What about the LC50 (Tribolium confusum [19]) of the same compound?
Answer: 4.2 uL/L

Question: What about the LC95 (Tribolium confusum [19]) of the same compound?
Answer: 7.8 uL/L

Question: What about the LC50 (Sitophilus oryzae [20]) of the same compound?
Answer: 2.2 uL/L

Question: What about the LC95 (Sitophilus oryzae [20]) of the same compound?
Answer: 3.7 uL/L

Question: And the LC50 (Plodia interpunctella [21])?
Answer: 3.7 uL/L

Question: What about the LC95 (Plodia interpunctella [21]) of the same compound?
Answer: 8.7 uL/L

Question: What about the LC50 (Tribolium confusum [22]) of the same compound?
Answer: 7.1 uL/L

Question: What about the LC50 (Tribolium confusum [23]) of the same compound?
Answer: 5.5 uL/L

Question: And the LC95 (Tribolium confusum [23])?
Answer: 12.8 uL/L

Question: And the LC50 (Sitophilus oryzae [24])?
Answer: 2.7 uL/L

Question: What about the LC95 (Sitophilus oryzae [24]) of the same compound?
Answer: 4.2 uL/L

Question: And the LC50 (Plodia interpunctella [25])?
Answer: 2.2 uL/L

Question: What about the LC95 (Plodia interpunctella [25]) of the same compound?
Answer: 4.1 uL/L

Question: And the LC50 (Tribolium confusum [26])?
Answer: 4.7 uL/L

Question: What about the LC95 (Tribolium confusum [26]) of the same compound?
Answer: 9.5 uL/L

Question: What about the LC50 (Tribolium confusum [27]) of the same compound?
Answer: 3.7 uL/L

Question: What about the LC95 (Tribolium confusum [27]) of the same compound?
Answer: 6.6 uL/L

Question: What about the LC50 (Sitophilus oryzae [28]) of the same compound?
Answer: 2 uL/L

Question: And the LC95 (Sitophilus oryzae [28])?
Answer: 3.4 uL/L

Question: What about the LC50 (Plodia interpunctella [29]) of the same compound?
Answer: 3.5 uL/L

Question: And the LC95 (Plodia interpunctella [29])?
Answer: 7.7 uL/L

Question: And the LC50 (Tribolium confusum [30])?
Answer: 7.3 uL/L

Question: What about the LC50 (Tribolium confusum [31]) of the same compound?
Answer: 4.7 uL/L

Question: And the LC95 (Tribolium confusum [31])?
Answer: 9.3 uL/L

Question: What does the source list for `P` [PHOSPHINE]?
Answer: mortality at 5 µg/mL (Tribolium confusum [32]): 100%; mortality at 5 µg/mL (Tribolium confusum [33]): 100%; mortality at 5 µg/mL (Sitophilus oryzae [34]): 100%

— ChEMBL document CHEMBL3045627, “Effect of allylisothiocyanate on Sitophilus oryzae, Tribolium confusum and Plodia interpunctella: Toxicity and effect on insect mitochondria” (2012)
